Assay results from PMC3810412 (Bioorganic & medicinal chemistry letters, 2013).
Like-named read-outs stand apart in the source and are kept apart here.

What was measured:
[1] = target: T1, GPI, Substance P induced muscle contraction (Cavia porcellus, UniProt P30547); assay: GPI assay, Substance P antagonist; type: cell-based; settings: in the presence of 1 μM naloxone, n = 4
[2] = target: T1, GPI, Substance P induced muscle contraction; settings: 1 μM naloxone; ref 3a; cited from earlier work
[3] = target: rat NK1 receptors (Rattus norvegicus, UniProt P14600); settings: read-out: rNK1 Ki; [3H]Substance P; ref 3a; cited from earlier work
[4] = target: GPI (μ) (Cavia porcellus, UniProt P97266); settings: read-out: GPI (μ) opioid agonist IC50; ref 3a; cited from earlier work
[5] = target: human NK1 receptors (Homo sapiens, UniProt P25103); settings: ratio; ref 3a; cited from earlier work
[6] = target: MVD (δ) (Mus musculus, UniProt P32300); settings: read-out: MVD (δ) opioid agonist IC50; ref 3a; cited from earlier work
[7] = tested on: rodent model; settings: ref 2a, cited from earlier work

T1 sequence (P30547 whole entry): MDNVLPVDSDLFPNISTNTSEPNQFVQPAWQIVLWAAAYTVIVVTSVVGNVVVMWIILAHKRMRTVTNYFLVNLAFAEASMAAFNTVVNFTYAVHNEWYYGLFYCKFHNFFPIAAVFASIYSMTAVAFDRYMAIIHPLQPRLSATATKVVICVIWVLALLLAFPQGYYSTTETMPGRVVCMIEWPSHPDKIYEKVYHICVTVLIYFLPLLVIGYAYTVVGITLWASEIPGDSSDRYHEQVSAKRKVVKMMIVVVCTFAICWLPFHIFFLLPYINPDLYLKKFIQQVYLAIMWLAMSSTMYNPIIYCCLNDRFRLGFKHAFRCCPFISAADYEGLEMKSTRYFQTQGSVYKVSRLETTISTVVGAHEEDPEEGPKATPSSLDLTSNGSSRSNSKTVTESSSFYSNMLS
MVD (δ), sequence (P32300 whole entry): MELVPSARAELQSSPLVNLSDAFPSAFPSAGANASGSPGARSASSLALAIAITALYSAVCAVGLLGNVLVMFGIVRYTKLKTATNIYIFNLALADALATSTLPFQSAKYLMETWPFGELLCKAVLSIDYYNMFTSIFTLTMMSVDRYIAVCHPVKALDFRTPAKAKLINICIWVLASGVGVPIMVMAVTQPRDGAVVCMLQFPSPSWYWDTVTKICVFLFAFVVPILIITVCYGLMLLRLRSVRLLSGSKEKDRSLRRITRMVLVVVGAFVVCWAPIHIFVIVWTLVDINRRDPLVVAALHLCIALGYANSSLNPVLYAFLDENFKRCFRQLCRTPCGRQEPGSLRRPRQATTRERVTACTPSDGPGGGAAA
human NK1 receptors, sequence (P25103 whole entry): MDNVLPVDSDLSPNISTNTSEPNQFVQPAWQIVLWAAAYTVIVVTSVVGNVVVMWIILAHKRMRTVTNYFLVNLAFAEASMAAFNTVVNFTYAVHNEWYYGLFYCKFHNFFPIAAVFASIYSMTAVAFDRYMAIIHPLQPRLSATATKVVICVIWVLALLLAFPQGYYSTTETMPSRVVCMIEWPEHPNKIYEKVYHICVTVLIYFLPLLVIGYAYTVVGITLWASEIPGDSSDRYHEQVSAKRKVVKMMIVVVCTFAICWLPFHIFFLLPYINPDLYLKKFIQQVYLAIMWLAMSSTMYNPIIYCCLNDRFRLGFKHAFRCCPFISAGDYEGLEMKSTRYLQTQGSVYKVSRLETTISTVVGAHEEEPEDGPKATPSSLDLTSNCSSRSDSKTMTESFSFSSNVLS
rat NK1 receptors, sequence (P14600 whole entry): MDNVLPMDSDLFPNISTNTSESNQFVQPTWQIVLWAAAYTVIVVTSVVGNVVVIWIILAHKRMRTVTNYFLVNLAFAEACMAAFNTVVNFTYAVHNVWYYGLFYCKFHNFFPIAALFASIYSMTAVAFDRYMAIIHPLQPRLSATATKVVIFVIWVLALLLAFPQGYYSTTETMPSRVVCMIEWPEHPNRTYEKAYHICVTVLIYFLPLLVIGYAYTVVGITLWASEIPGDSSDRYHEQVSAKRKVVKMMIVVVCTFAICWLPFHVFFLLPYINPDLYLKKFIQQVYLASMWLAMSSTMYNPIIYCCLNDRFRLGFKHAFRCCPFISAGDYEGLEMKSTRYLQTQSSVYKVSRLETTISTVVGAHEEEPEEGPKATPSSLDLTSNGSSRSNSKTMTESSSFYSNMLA

| Compound | GPI Substance P antagonist Ke [1] [nM] | GPI Substance P antagonist Ke [2] [nM] | Ki [3] [nM] | IC50 [4] [nM] | Ki(hNK1)/Ki(rNK1) [5] | IC50 [6] [nM] | opioid-induced tolerance [7] | reward liability [7] | effect on neuropathic pain ([7]; rodent model) |
| --- | --- | --- | --- | --- | --- | --- | --- | --- | --- |
| CC(=O)N[C@@H](Cc1c[nH]c2ccccc12)C(=O)OCc1cc(C(F)(F)F)cc(C(F)(F)F)c1 [L-732,138] | 250 | – | – | – | – | – | – | – | – |
| Tyr^1-DAla^2-Gly^3-Phe^4-Met^5-Pro^6-Leu^7-Trp^8-O-[3′,5′-Bzl(CF3)2] [compound 1] | – | 25 | 0.29 | 360 | 3.5 | 22 | no sign of opioid-induce tolerance | no development of reward liability | reverse neuropathic pain |
